Measured values: patent US20030082226A1, “Non-steroidal antiinflammatory drug formulations for topical application to the skin” (priority 1997, published 2003)

Assay: Delivery of various NSAIDs through human skin, effect of propylene glycol, static cells (Example 8)
Format: in vitro ADME
Conditions: 10% enhancer; for Avg 24 Hour % Dose: ethanol:water 70:30, pH about 7, human skin; for effect of propylene glycol on total delivery (percent of original dose) at twenty four hours: 0 to 20% PG
Text: All the tested formulations included ethanol and water at a 70:30 weight ratio and were neutralized with base to a pH of about 7.

Compound | Avg 24 Hour % Dose (0% PG) [%] | Avg 24 Hour % Dose (5% PG) [%] | Avg 24 Hour % Dose (10% PG) [%] | Avg 24 Hour % Dose (20% PG) [%] | effect of propylene glycol on total delivery (percent of original dose) at twenty four hours | Avg 24 Hour % Dose (15% PG) [%]
CC(C(=O)O)c1cccc(C(=O)c2ccccc2)c1 (stereo not shown) [Ketoprofen] | 9.1 | 10.3 | 12.0 | 27.0 |  | 
CN1C(C(=O)Nc2ccccn2)=C(O)c2ccccc2S1(=O)=O [Piroxicam] | 66.3 |  | 55.1 | 63.5 | substantially neutral | 
O=C(c1ccccc1)c1ccc2n1CCC2C(=O)O (stereo not shown) [Ketorolac] | 10.8 | 27.1 | 25.0 | 19.3 | intermediate | 
CC(C)Cc1ccc(C(C)C(=O)O)cc1 (stereo not shown) [Ibuprofen] | 61.7 | 57.9 | 56.5 | 28.3 |  | 50.1
O=C(O)Cc1ccccc1Nc1c(Cl)cccc1Cl [Diclofenac] | 18.7 | 29.7 | 35.3 | 45.2 |  | 
